Results as given in ChEMBL document CHEMBL4823315 (Bioorg Med Chem Lett, 2021).

Experiments:
[1] = molecular target: Serine/threonine-protein kinase AKT (Homo sapiens, UniProt P31751+Q9Y243+P31749); assay: Inhibition of Akt (unknown origin); format: protein assay
[2] = Inhibition of Akt/p70S6K in human MDA-MB-436 cells assessed as inhibition of S6 phosphorylation; format: cell-based
[3] = Inhibition of p70S6K (unknown origin); set-up: species or system Homo sapiens
[4] = molecular target: Voltage-gated inwardly rectifying potassium channel KCNH2 (Homo sapiens, UniProt Q12809); assay: Inhibition of human ERG by patch clamp assay
[5] = AUC in CD-1 mouse at 0.2 mg/kg, iv; format: ADME, organism-based; set-up: dose 0.2 mg/kg; conditions: in vivo
Cytochrome P450 1A2 = molecular target: T1, Cytochrome P450 1A2 (Homo sapiens, UniProt P05177); assay: Inhibition of CYP1A2 (unknown origin); format: ADME
T1 sequence (P05177 whole entry): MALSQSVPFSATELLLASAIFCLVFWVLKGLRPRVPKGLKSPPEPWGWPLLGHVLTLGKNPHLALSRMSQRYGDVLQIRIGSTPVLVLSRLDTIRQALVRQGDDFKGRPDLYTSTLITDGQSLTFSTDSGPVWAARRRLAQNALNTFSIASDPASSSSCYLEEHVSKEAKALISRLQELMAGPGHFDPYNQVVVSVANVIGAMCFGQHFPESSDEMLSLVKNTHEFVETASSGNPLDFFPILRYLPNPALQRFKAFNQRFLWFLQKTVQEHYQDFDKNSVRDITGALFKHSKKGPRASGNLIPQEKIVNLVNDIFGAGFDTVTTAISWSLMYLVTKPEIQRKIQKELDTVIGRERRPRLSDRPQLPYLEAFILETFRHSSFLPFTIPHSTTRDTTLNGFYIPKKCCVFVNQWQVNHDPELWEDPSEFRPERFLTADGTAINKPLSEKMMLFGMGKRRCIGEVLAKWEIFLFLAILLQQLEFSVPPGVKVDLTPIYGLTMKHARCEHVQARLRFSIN

[6] = AUC in CD-1 mouse at 0.5 mg/kg, po; format: ADME, organism-based; set-up: dose 0.5 mg/kg; conditions: in vivo
[7] = Clearance in CD-1 mouse at 0.5 mg/kg, po or 0.2 mg/kg, iv; format: ADME, organism-based; conditions: in vivo
[8] = Protein binding in human plasma assessed as unbound fraction; format: ADME, cell-free
[9] = Intrinsic clearance in mouse liver microsomes; format: ADME, Microsome; conditions: read-out: CLH
[10] = Protein binding in mouse plasma assessed as unbound fraction; format: ADME, cell-free
[11] = Half life in CD-1 mouse at 0.5 mg/kg, po or 0.2 mg/kg, iv; format: ADME, organism-based; conditions: in vivo
[12] = Efflux ratio of apparent permeability in human Caco-2 cells; format: ADME, cell-based
[13] = Apparent permeability across apical to basal side in human Caco-2 cells; format: ADME, cell-based
Cytochrome P450 2D6 = Cytochrome P450 2D6 (Homo sapiens, UniProt P10635); assay: Inhibition of CYP2D6 (unknown origin); format: ADME
[14] = Thermodynamic solubility of the compound at pH 7.4; format: physicochemical; conditions: buffer, read-out: Therm_solubility
[15] = Volume of distribution in CD-1 mouse at 0.5 mg/kg, po or 0.2 […], iv; format: ADME, organism-based; conditions: in vivo
Cytochrome P450 2B6 = molecular target: T2, Cytochrome P450 2B6 (Homo sapiens, UniProt P20813); assay: Inhibition of CYP2B6 (unknown origin); format: ADME
T2 sequence (P20813 whole entry): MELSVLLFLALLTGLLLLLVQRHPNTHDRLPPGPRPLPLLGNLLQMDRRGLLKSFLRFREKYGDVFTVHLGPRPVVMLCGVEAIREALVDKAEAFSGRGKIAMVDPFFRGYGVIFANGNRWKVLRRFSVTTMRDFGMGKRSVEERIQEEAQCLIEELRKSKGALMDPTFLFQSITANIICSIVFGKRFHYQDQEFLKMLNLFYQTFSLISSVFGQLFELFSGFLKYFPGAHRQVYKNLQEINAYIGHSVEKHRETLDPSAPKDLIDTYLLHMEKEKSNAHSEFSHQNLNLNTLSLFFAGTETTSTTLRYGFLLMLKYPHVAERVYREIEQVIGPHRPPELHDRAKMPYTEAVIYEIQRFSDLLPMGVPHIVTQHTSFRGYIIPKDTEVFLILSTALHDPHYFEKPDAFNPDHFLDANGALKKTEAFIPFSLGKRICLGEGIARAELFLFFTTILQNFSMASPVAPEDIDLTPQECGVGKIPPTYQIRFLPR

Cytochrome P450 2C19 = Cytochrome P450 2C19 (Homo sapiens, UniProt P33261); assay: Inhibition of CYP2C19 (unknown origin); format: ADME
[16] = Intrinsic clearance in human liver microsomes; format: ADME, Microsome; conditions: read-out: CLH
Cytochrome P450 2C9 = Cytochrome P450 2C9 (Homo sapiens, UniProt P11712); assay: Inhibition of CYP2C9 (unknown origin); format: ADME
Cytochrome P450 2C8 = molecular target: T3, Cytochrome P450 2C8 (Homo sapiens, UniProt P10632); assay: Inhibition of CYP2C8 (unknown origin); format: ADME
T3 sequence (P10632 whole entry): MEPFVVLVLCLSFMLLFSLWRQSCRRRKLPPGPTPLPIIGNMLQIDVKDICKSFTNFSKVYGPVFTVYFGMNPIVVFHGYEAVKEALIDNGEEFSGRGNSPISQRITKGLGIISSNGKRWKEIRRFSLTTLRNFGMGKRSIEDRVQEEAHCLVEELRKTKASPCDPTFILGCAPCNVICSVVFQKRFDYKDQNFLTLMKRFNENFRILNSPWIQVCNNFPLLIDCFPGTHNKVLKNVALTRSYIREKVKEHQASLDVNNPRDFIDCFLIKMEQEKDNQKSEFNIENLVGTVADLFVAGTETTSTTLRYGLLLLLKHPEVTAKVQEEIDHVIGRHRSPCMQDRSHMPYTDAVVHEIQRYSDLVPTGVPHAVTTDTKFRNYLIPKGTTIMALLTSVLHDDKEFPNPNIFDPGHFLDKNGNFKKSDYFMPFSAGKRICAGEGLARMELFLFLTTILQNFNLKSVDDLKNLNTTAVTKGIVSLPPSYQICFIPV

[17] = Cmax in CD-1 mouse at 0.2 mg/kg, iv; format: ADME, organism-based; set-up: route intravenous, dose 0.2 mg/kg; conditions: in vivo
Cytochrome P450 3A4 = Cytochrome P450 3A4 (Homo sapiens, UniProt P08684); assay: Inhibition of CYP3A4 (unknown origin); format: ADME
[18] = Oral bioavailability in CD-1 mouse at 0.5 mg/kg; format: ADME, organism-based; conditions: in vivo
[19] = Cmax in CD-1 mouse at 0.5 mg/kg, po; format: ADME, organism-based; set-up: route oral, dose 0.5 mg/kg; conditions: in vivo
[20] = Thermodynamic solubility of the compound at pH 1.2; format: physicochemical; conditions: buffer, read-out: Therm_solubility

Voltage-gated inwardly rectifying potassium channel KCNH2, sequence (Q12809 whole entry): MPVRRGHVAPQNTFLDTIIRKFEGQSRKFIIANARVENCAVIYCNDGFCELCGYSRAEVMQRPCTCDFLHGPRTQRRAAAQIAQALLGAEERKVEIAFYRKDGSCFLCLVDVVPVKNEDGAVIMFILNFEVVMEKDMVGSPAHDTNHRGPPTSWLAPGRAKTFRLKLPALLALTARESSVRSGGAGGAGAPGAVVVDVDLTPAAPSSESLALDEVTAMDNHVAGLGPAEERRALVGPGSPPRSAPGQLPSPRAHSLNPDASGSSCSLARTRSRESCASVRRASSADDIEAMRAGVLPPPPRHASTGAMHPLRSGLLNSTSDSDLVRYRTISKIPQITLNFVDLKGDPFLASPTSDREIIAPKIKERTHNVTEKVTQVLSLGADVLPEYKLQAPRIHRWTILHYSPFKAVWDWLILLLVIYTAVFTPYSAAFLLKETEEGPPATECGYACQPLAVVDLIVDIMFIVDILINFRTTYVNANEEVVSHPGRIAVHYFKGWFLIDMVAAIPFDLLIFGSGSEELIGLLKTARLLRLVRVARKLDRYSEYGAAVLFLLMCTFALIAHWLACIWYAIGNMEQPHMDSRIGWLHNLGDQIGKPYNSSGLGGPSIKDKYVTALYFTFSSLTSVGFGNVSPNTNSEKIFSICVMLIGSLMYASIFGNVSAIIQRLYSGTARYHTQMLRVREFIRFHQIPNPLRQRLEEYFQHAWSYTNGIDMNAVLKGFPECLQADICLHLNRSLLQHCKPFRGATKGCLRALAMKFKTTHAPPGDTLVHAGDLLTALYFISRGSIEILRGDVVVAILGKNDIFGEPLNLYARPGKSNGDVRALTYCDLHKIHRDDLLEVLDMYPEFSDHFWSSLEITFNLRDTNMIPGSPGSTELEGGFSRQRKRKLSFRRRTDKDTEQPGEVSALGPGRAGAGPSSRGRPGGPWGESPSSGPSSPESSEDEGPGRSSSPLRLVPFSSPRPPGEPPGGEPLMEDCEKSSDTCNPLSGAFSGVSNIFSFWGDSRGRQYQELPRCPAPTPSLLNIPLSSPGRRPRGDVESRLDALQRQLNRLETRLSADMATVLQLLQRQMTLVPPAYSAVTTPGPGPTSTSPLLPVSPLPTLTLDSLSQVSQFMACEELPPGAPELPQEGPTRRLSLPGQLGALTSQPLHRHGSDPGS
Cytochrome P450 2D6, sequence (P10635 whole entry): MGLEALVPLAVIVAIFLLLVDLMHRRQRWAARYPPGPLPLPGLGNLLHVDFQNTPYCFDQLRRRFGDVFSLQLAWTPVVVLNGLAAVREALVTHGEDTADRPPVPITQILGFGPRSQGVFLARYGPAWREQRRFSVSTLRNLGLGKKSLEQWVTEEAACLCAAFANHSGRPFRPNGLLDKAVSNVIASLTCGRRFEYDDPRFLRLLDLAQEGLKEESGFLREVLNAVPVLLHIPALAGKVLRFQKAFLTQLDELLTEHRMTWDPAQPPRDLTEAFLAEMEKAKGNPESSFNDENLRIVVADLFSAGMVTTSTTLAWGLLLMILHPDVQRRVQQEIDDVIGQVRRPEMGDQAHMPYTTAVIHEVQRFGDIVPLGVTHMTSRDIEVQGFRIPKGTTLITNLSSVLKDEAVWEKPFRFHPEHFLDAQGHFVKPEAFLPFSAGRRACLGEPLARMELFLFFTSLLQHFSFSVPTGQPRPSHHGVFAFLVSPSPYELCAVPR
Cytochrome P450 2C9, sequence (P11712 whole entry): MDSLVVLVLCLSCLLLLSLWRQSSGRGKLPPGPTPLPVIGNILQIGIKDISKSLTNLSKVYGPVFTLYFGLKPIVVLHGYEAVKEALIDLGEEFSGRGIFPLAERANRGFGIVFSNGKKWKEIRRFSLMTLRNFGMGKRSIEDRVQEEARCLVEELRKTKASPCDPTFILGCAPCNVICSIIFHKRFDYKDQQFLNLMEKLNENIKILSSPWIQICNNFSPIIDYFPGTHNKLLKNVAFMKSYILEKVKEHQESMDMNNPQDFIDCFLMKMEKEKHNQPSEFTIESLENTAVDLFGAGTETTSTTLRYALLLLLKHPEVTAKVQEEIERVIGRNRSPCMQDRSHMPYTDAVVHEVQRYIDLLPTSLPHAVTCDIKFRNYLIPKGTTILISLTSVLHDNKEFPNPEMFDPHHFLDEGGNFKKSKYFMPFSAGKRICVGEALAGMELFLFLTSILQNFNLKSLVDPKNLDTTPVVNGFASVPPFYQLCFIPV
Cytochrome P450 3A4, sequence (P08684 whole entry): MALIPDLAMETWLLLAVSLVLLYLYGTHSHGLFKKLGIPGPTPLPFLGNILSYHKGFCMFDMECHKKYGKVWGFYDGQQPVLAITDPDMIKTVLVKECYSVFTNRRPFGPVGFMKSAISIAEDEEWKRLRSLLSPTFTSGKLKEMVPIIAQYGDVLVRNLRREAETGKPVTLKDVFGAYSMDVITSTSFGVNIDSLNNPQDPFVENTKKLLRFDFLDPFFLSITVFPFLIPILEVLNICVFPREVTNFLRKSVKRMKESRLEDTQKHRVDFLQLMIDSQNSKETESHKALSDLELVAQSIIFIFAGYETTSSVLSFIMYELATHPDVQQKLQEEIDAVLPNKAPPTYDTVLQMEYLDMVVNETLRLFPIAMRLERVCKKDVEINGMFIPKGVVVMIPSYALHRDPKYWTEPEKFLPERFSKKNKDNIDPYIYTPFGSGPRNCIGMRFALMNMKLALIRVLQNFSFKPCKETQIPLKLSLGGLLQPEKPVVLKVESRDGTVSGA
Cytochrome P450 2C19, sequence (P33261 whole entry): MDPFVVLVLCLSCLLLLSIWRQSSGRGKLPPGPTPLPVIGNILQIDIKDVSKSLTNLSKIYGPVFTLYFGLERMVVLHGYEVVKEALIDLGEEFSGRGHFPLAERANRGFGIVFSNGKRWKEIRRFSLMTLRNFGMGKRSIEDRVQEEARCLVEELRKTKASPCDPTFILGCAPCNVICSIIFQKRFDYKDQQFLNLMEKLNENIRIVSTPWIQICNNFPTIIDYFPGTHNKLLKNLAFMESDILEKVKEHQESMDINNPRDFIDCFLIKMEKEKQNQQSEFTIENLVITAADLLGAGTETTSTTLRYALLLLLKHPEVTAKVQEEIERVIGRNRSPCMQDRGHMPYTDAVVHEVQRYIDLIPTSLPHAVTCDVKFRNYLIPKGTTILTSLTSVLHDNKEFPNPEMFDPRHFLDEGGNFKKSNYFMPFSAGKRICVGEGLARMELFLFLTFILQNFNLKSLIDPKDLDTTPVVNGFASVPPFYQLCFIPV

SMILES: NCC(c1ccccc1)N1CCN(c2ncnc(N)c2-c2ccc(F)cc2)CC1 (stereo not given)
- IC50 [1]: > 1000 nM
- IC50 [2]: 2600 nM
- IC50 [3]: 6.3 nM

SMILES: CN(C)CCn1cc(-c2ccc(F)c(C(F)(F)F)c2)nc1C1CCN(c2ncnc(N)c2C2CC2)CC1
- IC50 [1]: 4.8 nM
- IC50 [3]: 3.2 nM
- IC50 [4]: 830 nM

SMILES: Nc1ncnc(N2CCC(c3nc(-c4ccc(F)c(C(F)(F)F)c4)cn3CCN3CCC3)CC2)c1-c1ccc(F)cc1
- IC50 [1]: 23 nM
- IC50 [3]: 2.4 nM
- IC50 [4]: 1300 nM

SMILES: CCc1c(N)ncnc1N1CCC(c2nc(-c3ccc(F)c(C(F)(F)F)c3)cn2CCN(C)C)CC1
- IC50 [1]: 12 nM
- IC50 [3]: 3.7 nM

SMILES: Cn1cc(-c2ccc(F)c(C(F)(F)F)c2)nc1C1CCN(c2ncnc(N)c2-c2cccc(F)c2)CC1
- IC50 [1]: > 1000 nM
- IC50 [2]: 400 nM
- IC50 [3]: 1.6 nM

SMILES: CN(C)CCn1cc(-c2ccc(F)c(C(F)(F)F)c2)nc1C1CCN(c2ncnc(N)c2C#N)CC1
- IC50 [1]: 6.9 nM
- IC50 [2]: 55000 nM
- IC50 [3]: 1.8 nM
- IC50 [4]: 1600 nM

SMILES: Nc1ncnc(N2CCC(c3nc(-c4ccc(F)c(C(F)(F)F)c4)cn3CCN3CCCC3)CC2)c1-c1ccc(F)cc1
- IC50 [1]: 140 nM
- IC50 [3]: 8.2 nM
- IC50 [4]: 1500 nM

SMILES: CC(C)c1c(N)ncnc1N1CCC(c2nc(-c3ccc(F)c(C(F)(F)F)c3)cn2CCN2CCC2)CC1
- IC50 [1]: 6.6 nM
- IC50 [2]: 78000 nM
- IC50 [3]: 3.5 nM
- IC50 [4]: 1800 nM

SMILES: Nc1ncnc(N2CCC(c3nc(-c4ccc(F)c(C(F)(F)F)c4)cn3CCN3CCC3)CC2)c1Cl
- IC50 [1]: 1 nM
- IC50 [2]: 64000 nM
- IC50 [3]: 0.6 nM
- IC50 [4]: 1900 nM

SMILES: Cn1cc(-c2ccc(F)c(C(F)(F)F)c2)nc1C1CCN(c2cc(N)ncn2)CC1
- IC50 [1]: > 1000 nM
- IC50 [2]: 22000 nM
- IC50 [3]: 102 nM

SMILES: NCC(c1ccc(F)cc1)N1CCN(c2ncnc(N)c2-c2ccc(F)cc2)CC1 (stereo not given)
- IC50 [1]: > 1000 nM
- IC50 [2]: 1900 nM
- IC50 [3]: 4.4 nM

SMILES: Cc1ncc(-c2c(N)ncnc2N2CCC(c3nc(-c4ccc(F)c(C(F)(F)F)c4)cn3C)CC2)s1
- IC50 [1]: 850 nM
- IC50 [2]: 600 nM
- IC50 [3]: 2.1 nM

SMILES: CCc1c(N)ncnc1N1CCC(c2nc(-c3ccc(F)c(C(F)(F)F)c3)cn2CCN2CCC2)CC1
- IC50 [1]: 4 nM
- IC50 [2]: 49000 nM
- IC50 [3]: 2 nM
- IC50 [4]: 1600 nM

SMILES: Cn1cc(-c2ccc(F)c(C(F)(F)F)c2)nc1C1CCN(c2ncnc(N)c2-c2ccc(F)cc2)CC1
- AUC [5]: 1350 ng·h/mL
- IC50 [1]: 2200 nM
- IC50 (Cytochrome P450 1A2): > 20000 nM
- AUC [6]: 557 ng·h/mL
- CL [7]: 12.3 mL/min/kg
- fraction unbound [8]: 0.0008
- microsomal CLint [9]: 48 µL/min/mg
- fraction unbound [10]: 0.0003
- half-life [11]: 4.68 h
- efflux ratio [12]: 1.3
- Papp A→B [13]: 1.9 ×10⁻⁶ cm/s
- IC50 (Cytochrome P450 2D6): > 20000 nM
- IC50 [2]: 40 nM
- solubility thermodynamic [14]: < 1 µg/mL
- Vd [15]: 2.16 L/kg
- IC50 (Cytochrome P450 2B6): 6500 nM
- IC50 (Cytochrome P450 2C19): > 20000 nM
- microsomal CLint [16]: 23 µL/min/mg
- IC50 (Cytochrome P450 2C9): > 20000 nM
- IC50 [3]: 4 nM
- IC50 (Cytochrome P450 2C8): > 20000 nM
- IC50 [4]: 1800 nM
- Cmax [17]: 597 ng/mL
- IC50 (Cytochrome P450 3A4): > 20000 nM
- F [18]: 41%
- Cmax [19]: 72.1 ng/mL
- solubility thermodynamic [20]: < 1 µg/mL

SMILES: CN(C)CC(c1ccc(C(F)(F)F)cc1)N1CCN(c2ncnc(N)c2-c2ccc(F)cc2)CC1 (stereo not given)
- IC50 [1]: > 1000 nM
- IC50 [2]: 1200 nM
- IC50 [3]: 4.9 nM

SMILES: Cn1cc(-c2ccc(F)c(C(F)(F)F)c2)nc1C1CCN(c2ncnc(N)c2-c2cncnc2)CC1
- IC50 [1]: 880 nM
- IC50 [2]: 700 nM
- IC50 [3]: 2.3 nM
